# Key:
# [1] = tested on: human pulmonary arterial smooth muscle cells (HPASMCs); experiment: PDGF-BB-induced HPASMC proliferation assay; type: cell-based
# [2] = tested on: MCP-1 secretion in CSF1R+ human macrophages; experiment: MCP-1/CCL2 secretion in primary human macrophages; type: cell-based; settings: 24-hour incubation
# c-KIT [3] = molecular target: c-KIT (Rattus norvegicus, UniProt F7EWK5); experiment: Lung c-KIT phosphorylation after PDGF-BB and SCF challenge in healthy rats; type: in vivo; settings: inhaled; co-administered intratracheal PDGF-BB and SCF
# c-KIT (Rattus norvegicus, UniProt F7EWK5), sequence (F7EWK5 26-978): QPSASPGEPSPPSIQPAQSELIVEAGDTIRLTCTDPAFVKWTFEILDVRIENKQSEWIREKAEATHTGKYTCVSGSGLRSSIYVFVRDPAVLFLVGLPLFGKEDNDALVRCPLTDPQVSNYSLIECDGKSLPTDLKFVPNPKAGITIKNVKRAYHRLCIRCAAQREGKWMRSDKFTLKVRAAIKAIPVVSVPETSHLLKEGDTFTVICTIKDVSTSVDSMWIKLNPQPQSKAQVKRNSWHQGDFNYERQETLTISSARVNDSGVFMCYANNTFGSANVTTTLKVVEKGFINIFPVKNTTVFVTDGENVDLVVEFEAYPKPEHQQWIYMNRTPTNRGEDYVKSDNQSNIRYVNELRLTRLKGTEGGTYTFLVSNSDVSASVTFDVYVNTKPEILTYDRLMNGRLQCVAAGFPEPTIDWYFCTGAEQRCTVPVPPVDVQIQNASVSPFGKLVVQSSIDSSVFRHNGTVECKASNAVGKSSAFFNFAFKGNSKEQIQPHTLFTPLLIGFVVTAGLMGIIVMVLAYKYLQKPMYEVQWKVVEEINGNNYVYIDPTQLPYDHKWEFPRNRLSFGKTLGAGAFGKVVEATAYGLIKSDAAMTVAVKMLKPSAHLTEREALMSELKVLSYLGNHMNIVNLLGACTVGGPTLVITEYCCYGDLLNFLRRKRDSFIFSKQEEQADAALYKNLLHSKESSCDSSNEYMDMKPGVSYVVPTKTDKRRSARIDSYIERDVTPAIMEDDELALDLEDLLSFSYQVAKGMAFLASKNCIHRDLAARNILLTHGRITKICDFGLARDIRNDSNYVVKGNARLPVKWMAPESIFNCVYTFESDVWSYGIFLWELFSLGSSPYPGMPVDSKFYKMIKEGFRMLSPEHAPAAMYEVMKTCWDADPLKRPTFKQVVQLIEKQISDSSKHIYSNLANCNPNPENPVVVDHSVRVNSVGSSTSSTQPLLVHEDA
# BMPR2 = experiment: Lung BMPR2 protein expression in healthy rats; type: in vivo, rat; settings: inhaled, dose-dependent, over time (8, 16, 24 h post-dosing)
# [4] = tested on: rat SU5416/Hypoxia (SU5416/H) model of PAH; experiment: SU5416/H model; type: in vivo; settings: for RVSP end of study: 2 weeks
# [5] = tested on: rat monocrotaline pneumonectomy (MCTPN) model of PAH; experiment: MCTPN model; type: in vivo
# [6] = tested on: rat SU5416/Hypoxia (SU5416/H) model of PAH; experiment: SU5416/H model; type: in vivo; settings: for circulating IL-10 / circulating plasma TNF-α / lung mRNA and protein levels of MCP-1: day 49, vs vehicle; for lung BMPR2: end of treatment, vs vehicle
# c-KIT [7] = molecular target: c-KIT (Homo sapiens, UniProt P10721); experiment: cell-based
# c-KIT (Homo sapiens, UniProt P10721), sequence (P10721 26-976): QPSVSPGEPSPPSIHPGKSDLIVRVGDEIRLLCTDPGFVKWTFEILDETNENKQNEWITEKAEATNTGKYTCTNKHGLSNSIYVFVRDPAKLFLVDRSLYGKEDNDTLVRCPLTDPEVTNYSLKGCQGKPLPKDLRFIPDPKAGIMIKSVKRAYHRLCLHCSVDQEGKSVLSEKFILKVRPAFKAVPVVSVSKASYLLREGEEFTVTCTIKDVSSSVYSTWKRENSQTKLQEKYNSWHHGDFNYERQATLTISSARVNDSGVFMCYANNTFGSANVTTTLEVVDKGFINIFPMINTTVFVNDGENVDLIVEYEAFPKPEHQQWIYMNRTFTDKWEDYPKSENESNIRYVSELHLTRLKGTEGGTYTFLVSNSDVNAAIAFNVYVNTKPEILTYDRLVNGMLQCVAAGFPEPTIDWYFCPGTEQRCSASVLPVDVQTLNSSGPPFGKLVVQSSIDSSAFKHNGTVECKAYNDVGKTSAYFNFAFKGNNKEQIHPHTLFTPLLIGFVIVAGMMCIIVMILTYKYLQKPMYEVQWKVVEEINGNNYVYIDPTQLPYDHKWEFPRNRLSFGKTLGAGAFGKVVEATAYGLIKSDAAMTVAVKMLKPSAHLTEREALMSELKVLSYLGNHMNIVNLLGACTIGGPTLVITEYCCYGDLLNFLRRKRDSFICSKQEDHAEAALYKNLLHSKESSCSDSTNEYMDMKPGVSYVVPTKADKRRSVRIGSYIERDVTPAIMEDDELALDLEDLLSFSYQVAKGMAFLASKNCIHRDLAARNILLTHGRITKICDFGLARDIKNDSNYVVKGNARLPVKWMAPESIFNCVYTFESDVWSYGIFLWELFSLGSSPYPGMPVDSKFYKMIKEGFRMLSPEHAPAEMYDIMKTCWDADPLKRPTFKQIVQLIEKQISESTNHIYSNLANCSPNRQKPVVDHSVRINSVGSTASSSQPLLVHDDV
# [8] = Inhaled seralutinib pharmacokinetics in healthy rats; settings: male, Sprague Dawley, rat, lung homogenate and plasma
# CSF1R = CSF1R (Homo sapiens, UniProt P07333); experiment: M-CSF-induced pCSF1R in primary human macrophages
# CSF1R, sequence (P07333 20-972): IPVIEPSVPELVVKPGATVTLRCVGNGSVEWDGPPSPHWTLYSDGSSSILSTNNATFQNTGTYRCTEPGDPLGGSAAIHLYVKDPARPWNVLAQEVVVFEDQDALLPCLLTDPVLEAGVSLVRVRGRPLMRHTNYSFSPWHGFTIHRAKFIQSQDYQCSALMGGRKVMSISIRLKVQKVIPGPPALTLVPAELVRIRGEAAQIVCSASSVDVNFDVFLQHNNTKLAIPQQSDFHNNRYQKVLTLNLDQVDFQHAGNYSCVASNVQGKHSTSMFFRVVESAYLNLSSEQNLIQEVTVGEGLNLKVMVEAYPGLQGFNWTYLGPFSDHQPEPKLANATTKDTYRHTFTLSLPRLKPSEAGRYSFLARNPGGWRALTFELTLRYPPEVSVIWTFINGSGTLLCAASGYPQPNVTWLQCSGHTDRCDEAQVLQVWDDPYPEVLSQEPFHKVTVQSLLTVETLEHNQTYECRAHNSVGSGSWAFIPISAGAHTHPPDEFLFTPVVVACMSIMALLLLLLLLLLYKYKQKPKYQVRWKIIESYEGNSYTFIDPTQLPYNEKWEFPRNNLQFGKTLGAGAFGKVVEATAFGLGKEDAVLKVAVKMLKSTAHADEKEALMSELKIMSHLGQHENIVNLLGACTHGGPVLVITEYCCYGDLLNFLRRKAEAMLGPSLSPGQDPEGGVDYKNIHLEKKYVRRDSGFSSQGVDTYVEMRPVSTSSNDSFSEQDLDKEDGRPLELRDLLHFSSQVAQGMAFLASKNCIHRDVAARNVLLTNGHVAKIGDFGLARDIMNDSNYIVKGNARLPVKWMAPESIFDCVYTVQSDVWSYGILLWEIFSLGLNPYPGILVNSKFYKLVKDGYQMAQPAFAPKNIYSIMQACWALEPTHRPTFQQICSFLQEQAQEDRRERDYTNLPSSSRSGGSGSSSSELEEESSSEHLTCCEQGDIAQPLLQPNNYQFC
# PDGFRβ = PDGFRβ (Rattus norvegicus, UniProt Q05030); experiment: Imatinib in vivo pharmacodynamic profile; settings: imatinib dose selected for the in vivo study, oral gavage
# PDGFRβ, sequence (Q05030 32-1097): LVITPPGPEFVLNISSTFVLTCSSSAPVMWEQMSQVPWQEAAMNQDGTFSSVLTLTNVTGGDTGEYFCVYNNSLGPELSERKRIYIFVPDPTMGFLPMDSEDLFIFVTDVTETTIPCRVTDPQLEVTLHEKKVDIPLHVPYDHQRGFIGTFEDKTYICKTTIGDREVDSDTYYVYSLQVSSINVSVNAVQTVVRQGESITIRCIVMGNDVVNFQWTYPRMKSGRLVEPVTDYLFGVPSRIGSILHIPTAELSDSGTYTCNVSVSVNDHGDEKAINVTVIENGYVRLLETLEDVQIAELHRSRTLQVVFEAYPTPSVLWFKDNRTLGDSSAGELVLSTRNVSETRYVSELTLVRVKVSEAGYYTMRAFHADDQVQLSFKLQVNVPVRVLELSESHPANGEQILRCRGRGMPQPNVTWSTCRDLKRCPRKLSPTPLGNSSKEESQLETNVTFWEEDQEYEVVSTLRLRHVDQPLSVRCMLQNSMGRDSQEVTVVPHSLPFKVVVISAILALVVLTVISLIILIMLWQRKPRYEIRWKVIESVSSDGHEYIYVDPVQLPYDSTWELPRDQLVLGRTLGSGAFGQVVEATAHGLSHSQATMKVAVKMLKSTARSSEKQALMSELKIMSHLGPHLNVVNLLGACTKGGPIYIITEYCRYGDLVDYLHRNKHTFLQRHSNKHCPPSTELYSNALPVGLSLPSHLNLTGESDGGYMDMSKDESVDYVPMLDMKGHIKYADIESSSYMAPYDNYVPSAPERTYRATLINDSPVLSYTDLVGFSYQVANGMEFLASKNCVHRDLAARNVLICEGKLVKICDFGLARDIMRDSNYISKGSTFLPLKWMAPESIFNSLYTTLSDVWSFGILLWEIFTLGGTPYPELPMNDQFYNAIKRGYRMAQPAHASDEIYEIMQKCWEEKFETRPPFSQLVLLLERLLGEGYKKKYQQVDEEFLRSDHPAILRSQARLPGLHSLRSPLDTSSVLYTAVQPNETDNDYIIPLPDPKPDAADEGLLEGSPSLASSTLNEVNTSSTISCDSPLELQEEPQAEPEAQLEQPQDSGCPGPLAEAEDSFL
# [9] = tested on: rat monocrotaline (MCT) model; settings: cited from earlier work
# [10] = 4.6 mg·kg−1 twice daily, vs vehicle
# [11] = 2.5 mg·kg−1 twice daily inhaled, 11 days
# [12] = 2.5 mg·kg−1 twice daily, vs vehicle
compound,measurement,setting,value
"COc1ccc(-c2cncc(N[C@@H](C)c3cccc(NC(=O)c4cncc(C)c4)c3)n2)cc1OC [Seralutinib, N-[3-[(1S)-1-[[6-(3,4-dimethoxyphenyl)pyrazin-2-yl]amino]ethyl]phenyl]-5-methylpyridine-3-carboxamide]",greater potency at inhibiting proliferation compared to imatinib,[1]; human PASMCs and HLFs,13- to 20 fold
same,MCP-1 secretion,[2],reduced MCP-1 secretion in a dose-dependent manner
same,inhibition of c-KIT Y719 phosphorylation in lung,c-KIT [3],43%
same,increase in lung BMPR2 protein expression,BMPR2,2-to-2.5 fold
same,RVSP end of study,[4]; 2.5 mg·kg−1 twice daily inhaled,49.6±3.1 mmHg
same,reduction of PASP relative to vehicle,"[4]; 2.5 mg·kg−1 twice daily inhaled, end of 2-week treatment, telemetry",43%
same,RVSP end of study,[4]; 4.6 mg·kg−1 twice daily inhaled,34.7±2.2 mmHg
same,lung phospho-PDGFRβ IHC,[4]; [10],reduced intensity
same,number of grade 2 lesions (small pulmonary artery occlusion),[4]; [10],significant decrease
same,small pulmonary artery lumen-to-media area,[4]; [10],increased
same,reduction in RVSP compared to vehicle,[5]; [11],50%
same,reduction of right ventricular hypertrophy compared to vehicle,[5]; [11],49%
same,PASP lower compared to vehicle,"[5]; 2.5 mg·kg−1 twice daily inhaled, day 9",34%
same,PASP lower compared to vehicle,"[5]; 2.5 mg·kg−1 twice daily inhaled, day 10",37%
same,PASP lower compared to vehicle,"[5]; 2.5 mg·kg−1 twice daily inhaled, day 11",41%
same,lumen-to-media area,"[5]; 2.5 mg·kg−1 twice daily, vs controls",increased
same,grade 1 and 2 lesions,[5]; [12],fewer
same,perivascular fibrosis,[5]; [12],qualitative decrease
same,airway resistance,[5]; vs vehicle,similar
same,minute ventilation,[5]; vs vehicle,similar
same,respiratory rate,[5]; vs vehicle,decreased
same,tidal volume,[5]; vs vehicle,significantly improved
same,decrease of NT-proBNP versus vehicle control,"[6]; 12.8 mg·kg−1 twice daily inhaled, day 49",55%
same,small pulmonary artery muscularisation,[6]; compared to both the vehicle and imatinib-treated groups,decrease
same,SMAD1/5 phosphorylation in lung,[6]; day 49,increase
same,circulating PDGF-BB,[6]; day 49,trend towards decreased
same,circulating IL-10,[6],increased
same,circulating plasma TNF-α,[6],decreased
same,lung mRNA and protein levels of MCP-1,[6],decreased
same,effect on stroke volume index and cardiac index compared to imatinib,"[6]; echocardiography, day 49",significantly greater effect
same,lung BMPR2,[6],significantly increased
same,IC50,c-KIT [7],7.8 nM
same,Kp,[8],30
same,IC50,CSF1R,14.4 nM
same,"more potent than imatinib, pCSF1R",CSF1R; M-CSF-induced phosphorylation of CSF1R in human primary differentiated macrophages,34 fold
"Cc1ccc(NC(=O)c2ccc(CN3CCN(C)CC3)cc2)cc1Nc1nccc(-c2cccnc2)n1 [Imatinib, reference compound]",potency less than seralutinib,[1]; human PASMC and HLF proliferation assays,13–20 fold
same,PDGFRβ phosphorylation in healthy rats,PDGFRβ,potent inhibition
same,circulating IL-10,[6],did not significantly alter
same,circulating plasma TNF-α,[6],did not significantly alter
same,lung mRNA and protein levels of MCP-1,[6],did not modulate
same,lung BMPR2,[6],no significant effect
same,effect on NT-proBNP,"[6]; imatinib 15.0 mg·kg−1 once daily oral, day 49",no significant effect
same,pulmonary hypertension in rat MCT model,[9],reversed pulmonary hypertension

# Reference: PMC9724289 (The European Respiratory Journal, 2022)
